The text below walks through data of patent publication US8828950B2, “Caspase inhibitors in the treatment of infection-associated preterm delivery” (Cedars-Sinai Medical Center, priority 2007, dated 2014).

In test [1] the test system is primary human trophoblasts and fibroblasts. Conditions: in vitro pretreatment; Equils et al., 2006; cited from earlier work.
Test [2] relates to pregnant CD1 mice injected with HK-GBS. Briefly: HK-GBS-induced preterm delivery in day 14.5 pregnant CD1 mice. It is filed as in vivo, mouse. On the procedure:
To assess whether caspase inhibition prevented HK-GBS-induced preterm delivery, unanesthetized day 14.5 pregnant CD1 mice (Harlan Laboratories, Madison, Wis.), which breed more effectively than inbred C57BL/6J mice, were pre-treated intraperitoneally with PBS, DMSO or the pancaspase inhibitor Z-VAD-FMK (10 mg/kg) 30 minutes prior to intraperitoneal injection with either 10^9 HK-GBS bacteria or medium. There were no differences in delivery outcomes following intraperitoneal injection with GBS whether or not animals were pretreated with either PBS or DMSO (diluents for the caspase inhibitor). Therefore these separate control pre-treatments are combined for the analyses.
Chi-square analysis was done to assess the effect of Z-VAD-FMK pretreatment on HK-GBS-induced preterm delivery.
Based upon that observation, we hypothesized that the generalized inhibition of caspases would prevent microbial antigen-induced preterm delivery in the mouse pregnancy model. In order to test this hypothesis we pre-treated day 14.5 pregnant CD1 mice either with Z-VAD-FMK (10 mg/kg dissolved in DMSO/PBS) or with medium intraperitoneally 30 minutes prior to intraperitoneal HK-GBS injection.

The test system of test [3] is pregnant mice injected with LPS. Briefly: LPS-induced pup mortality/abortion in pregnant Cox2/luciferase mice (bioluminescence imaging). The conditions noted are these: for pup (fetal) mortality / abortion after LPS: 0.25 mg ip 5-30 minutes prior to each ip LPS injection, 14 day pregnant mouse. Format: in vivo, mouse. From the text:
Therefore, the use of caspase inhibitors confers a protective effect not seen by merely controlling infection through the use of antibiotics. As one of skill in the art will realize that the murine model can provide a guide to expected outcomes in human pregnancy, it is believed that caspase inhibitor treatment will be effective in the treatment of pregnant women with intrauterine infection so as to prevent preterm delivery and improve pregnancy outcome. This is a novel mammalian model for the improvement of pregnancy outcome.
Our experimental test method is based on the use of a mouse model in which inflammation (as assessed by Cox2 promoter activation) is detected optically by using a transgenic animal in which activation of the promoter results in synthesis of luciferase. When luciferin is subsequently injected, the presence of luciferase is detected by a sensitive camera as the production of light. The detected inflammation is indicative of the infection caused by the LPS injection.
In FIG. 1, pregnant mice are imaged. The mice were first mated with Cox2/luciferase males so that the pups would be positive for the Cox2/luciferase construct. The mice were treated with LPS which is normally produced by bacteria and results in inflammation. We injected pregnant mice with 0.1 microgram/ml LPS intraperitoneally (ip) for the control mice 0-24 hours (using a 2, 4, 6, 12 hour time course) prior to the imaging. The resulting inflammation causes the upregulation of Cox2 promoter in the pups resulting in the synthesis of luciferase. […] The treatment mice were given 0.25 mg ip of the pancaspase inhibitor 5-30 minutes prior to each LPS injection.
In the case of the control mouse (right-hand side of FIG. 1) inflammation results in the abortion of the pups (no bioluminescence detected). […] Thus, in the case of inflammation resulting from infection (as is common in cases of preterm delivery in humans) effective treatment includes antibiotic to reduce or eliminate the infection and caspase inhibitor to prevent preterm delivery.

Entries after “also recorded” stand apart in the source; their conditions may differ. Residues, ends and D or L forms follow the SMILES beside them. *: point of attachment. Cbz = O=C(OCc1ccccc1)*; CH2F = FC*

For the compound `COC(=O)C[C@H](NC(=O)[C@H](C)NC(=O)[C@@H](NC(=O)OCc1ccccc1)C(C)C)C(=O)CF` [Z-VAD-FMK, carbobenzoxy-valyl-alanyl-aspartyl-[O-methyl]-fluoromethylketone] (Cbz-Val-Ala-Asp(OMe)-CH2F), in test [1], the cHSP60-induced apoptosis entry is listed as “prevented Chlamydia heat shock protein (cHSP60)-induced apoptosis”. For the same compound, the “Delivery <18 hr (%)” value in test [2] (10 mg/kg ip 30 minutes prior to ip 10^9 HK-GBS, 1 of n = 6, GBS alone 12 (86%) of n = 14, p value 0.0072) is listed as 1 (17%). In addition, the “Delivery 18-24 hrs (%)” value in test [2] (10 mg/kg ip 30 minutes prior to ip 10^9 HK-GBS, 2 of n = 6, GBS alone 0 of n = 14, p value 0.079) is 2 (33%). In addition, the “Preterm Delivery (<24 hours)” value in test [2] (10 mg/kg ip 30 minutes prior to ip 10^9 HK-GBS, 3 of n = 6, GBS alone 12 (86%) of n = 14, p value 0.13) was 3 (50%). For the same compound, in test [2] (ip pre-treatment 10 mg/kg, ip HK-GBS), the “effect on HK-GBS-induced preterm delivery” value is given as “delayed i.p. HK-GBS-induced preterm delivery; also recorded: significantly delayed preterm delivery at 18 hours”. The “pup (fetal) mortality / abortion after LPS” value in test [3] was “prevents pup mortality; also recorded: the pups do not abort”; in test [3] (listed as Z-VAD FMK), “reduces fetal mortality”; in test [3] (listed as pancaspase inhibitor) it was “maintenance of pregnancy”. Also, in test [3] (0.25 mg ip prior to ip LPS injection), the “inflammation as assessed by Cox2 promoter activation (bioluminescence)” value is recorded as “continued inflammation; also recorded: does not prevent inflammation”.
